Like-named read-outs stand apart in the source and are kept apart here.
Test system: LPS-stimulated pERK in monocytes (TPL2 pathway)
Assay: Ex vivo LPS-stimulated pERK in monocytes of whole blood after Compound 1 dosing (flow cytometry)
Design: species or system human
Conditions: for inhibition at 75 mg: Homo sapiens, Monocyte, 75 mg QD multiple dose, read-out: pERK Signal, % Inhibition
Method: For Cohorts 1-4, whole blood PD sampling occurred relative to the dose of Compound 1 at the following time points: • Day 1: 0 pre-dose (≤5 min prior to dosing), 1, 2, 3, 4, 8, 12, 24 and 36 hours post-dose
For Cohorts 5-9, whole blood PD sampling occurred relative to the dose of Compound 1 at the following time points: • Day 1: 0 pre-dose (≤5 min prior to dosing), 1, 2, 3, 4, 8, 12, and 24 hours post-dose • Day 10: 0 pre-dose (≤5 min prior to dosing), 1, 2, 3, 4, 8, 12, 24, 36, 48, 72, 96, and 120 hours post-dose
Whole blood PD Samples were stimulated ex vivo with lipopolysaccharide (LPS) or phosphate buffered saline (PBS), and the phosphorylation of extracellular signal-related kinase (pERK) was detected in monocytes by flow cytometry.
Pharmacodynamic changes after single and multiple doses of Compound 1 were also investigated by monitoring, in whole blood samples, stimulated with either lipopolysaccharide (LPS) or PBS for 15 minutes at 37° C. Changes to the phosphorylation of extracellular signal-regulated kinases (pERK) was measured in monocytes by flow cytometry, defined as CD15−CD14+.
Pharmacodynamic parameters for Compound 1 were calculated as percent change in pERK signal relative to Day 1 pre-dose (baseline) for all evaluable participants.
Multiple Ascending Doses: Pharmacodynamic parameters after multiple doses of Compound 1 were also calculated as percent change in pERK signal relative to Day 1 pre-dose (baseline) for all evaluable participants.

## Cn1ccc2c([C@@H](c3cn(C45CC(C4)C5)nn3)N(C(=O)OCOP(=O)(O)O)c3cc(Cl)c4ncc(C#N)c(NCC(C)(C)C)c4c3)cccc2c1=O [Compound 1]
75 mg QD, Day 10, 12 hours post-last dose
  median percent change in pERK relative to baseline: −48.3%
75 mg QD, Day 10, 24 hours post last dose
  median percent change in pERK relative to baseline: −39.8%
75 mg single dose, 3 hours post-dose
  median change in pERK relative to baseline: −86.8%
75 mg single dose, 12 hours post-dose
  median change in pERK relative to baseline: −51.3%
75 mg single dose, Day 1 1 hour, mean (SD)
  pERK Signal, % Inhibition: 56.4 (13.04) %
75 mg single dose, Day 1 1 hour, median
  pERK Signal, % Inhibition: 62.9%
75 mg single dose, Day 1 3 hours, mean (SD)
  pERK Signal, % Inhibition: 82.7 (10.42) %
75 mg single dose, Day 1 3 hours, median
  pERK Signal, % Inhibition: 86.8%
75 mg single dose, Day 1 12 hours, mean (SD)
  pERK Signal, % Inhibition: 52.2 (6.53) %
75 mg single dose, Day 1 12 hours, median
  pERK Signal, % Inhibition: 51.3%
75 mg single dose, Day 1 24 hours, mean (SD)
  pERK Signal, % Inhibition: 33.6 (4.73) %
75 mg single dose, Day 1 24 hours, median
  pERK Signal, % Inhibition: 33.6%
300 mg QD, Day 10, 12 hours post-last dose
  median percent change in pERK relative to baseline: −95.7%
300 mg QD, Day 10, 24 hours post last dose
  median percent change in pERK relative to baseline: −91.6%
300 mg single dose, 3 hours post-dose
  median change in pERK relative to baseline: −95.6%
300 mg single dose, 12 hours post-dose
  median change in pERK relative to baseline: −76.6%
300 mg single dose, Day 1 1 hour, mean (SD)
  pERK Signal, % Inhibition: 32.2 (35.11) %
300 mg single dose, Day 1 1 hour, median
  pERK Signal, % Inhibition: 29.1%
300 mg single dose, Day 1 3 hours, mean (SD)
  pERK Signal, % Inhibition: 93.4 (5.08) %
300 mg single dose, Day 1 3 hours, median
  pERK Signal, % Inhibition: 95.6%
300 mg single dose, Day 1 12 hours, mean (SD)
  pERK Signal, % Inhibition: 76.0 (7.04) %
300 mg single dose, Day 1 12 hours, median
  pERK Signal, % Inhibition: 76.7%
300 mg single dose, Day 1 24 hours, mean (SD)
  pERK Signal, % Inhibition: 66.4 (2.19) %
300 mg single dose, Day 1 24 hours, median
  pERK Signal, % Inhibition: 65.3%
600 mg BID, Day 10, 12 hours post-last dose
  median percent change in pERK relative to baseline: −100.2%
600 mg BID, Day 10, 24 hours post last dose
  median percent change in pERK relative to baseline: −101.5%
900 mg QD, Day 10, 12 hours post-last dose
  median percent change in pERK relative to baseline: −96.7%
900 mg QD, Day 10, 24 hours post last dose
  median percent change in pERK relative to baseline: −98.5%
900 mg single dose, 3 hours post-dose
  median change in pERK relative to baseline: −99.9%
900 mg single dose, 12 hours post-dose
  median change in pERK relative to baseline: −92.1%
900 mg single dose, Day 1 1 hour, mean (SD)
  pERK Signal, % Inhibition: 74.5 (38.94) %
900 mg single dose, Day 1 1 hour, median
  pERK Signal, % Inhibition: 97.9%
900 mg single dose, Day 1 3 hours, mean (SD)
  pERK Signal, % Inhibition: 99.8 (2.98) %
900 mg single dose, Day 1 12 hours, mean (SD)
  pERK Signal, % Inhibition: 92.7 (3.10) %
900 mg single dose, Day 1 12 hours, median
  pERK Signal, % Inhibition: 92.1%
900 mg single dose, Day 1 24 hours, mean (SD)
  pERK Signal, % Inhibition: 83.6 (7.00) %
900 mg single dose, Day 1 24 hours, median
  pERK Signal, % Inhibition: 85.8%
1500 mg single dose, 3 hours post-dose
  median change in pERK relative to baseline: −99%
1500 mg single dose, 12 hours post-dose
  median change in pERK relative to baseline: −96.3%
1500 mg single dose, Day 1 1 hour, mean (SD)
  pERK Signal, % Inhibition: 74.8 (45.62) %
1500 mg single dose, Day 1 1 hour, median
  pERK Signal, % Inhibition: 97.3%
1500 mg single dose, Day 1 3 hours, mean (SD)
  pERK Signal, % Inhibition: 92.8 (16.61) %
1500 mg single dose, Day 1 3 hours, median
  pERK Signal, % Inhibition: 99.0%
1500 mg single dose, Day 1 12 hours, mean (SD)
  pERK Signal, % Inhibition: 93.0 (6.35) %
1500 mg single dose, Day 1 12 hours, median
  pERK Signal, % Inhibition: 96.3%
1500 mg single dose, Day 1 24 hours, mean (SD)
  pERK Signal, % Inhibition: 94.4 (2.50) %
1500 mg single dose, Day 1 24 hours, median
  pERK Signal, % Inhibition: 94.2%
Day 10 of multiple doses, post-last dose
  time of maximum PD effect: 2 to 4 h
Day 1 1 hour, mean (SD)
  inhibition at 75 mg: 47.9%
Day 1 1 hour, median
  inhibition at 75 mg: 44.9%
Day 1 3 hours, mean (SD)
  inhibition at 75 mg: 67.5%
Day 1 3 hours, median
  inhibition at 75 mg: 79.6%
Day 1 12 hours, mean (SD)
  inhibition at 75 mg: 26.1%
Day 1 12 hours, median
  inhibition at 75 mg: 32.4%
Day 10 1 hour, mean (SD)
  inhibition at 75 mg: 62.2%
Day 10 1 hour, median
  inhibition at 75 mg: 62.7%
Day 10 3 hours, mean (SD)
  inhibition at 75 mg: 85.4%
Day 10 3 hours, median
  inhibition at 75 mg: 88.3%
Day 10 12 hours, mean (SD)
  inhibition at 75 mg: 43.5%
Day 10 12 hours, median
  inhibition at 75 mg: 48.3%
Day 10 24 hours, mean (SD)
  inhibition at 75 mg: 12.6%
Day 10 24 hours, median
  inhibition at 75 mg: 39.8%

From patent publication US20250213550A1, “COMPOUNDS AND METHODS FOR TREATING INFLAMMATORY BOWEL DISEASE” (Gilead Sciences, Inc., priority 2023, published 2025)
